Results taken from the supplement of paper PMC10307832.

How the values were obtained:
Test in all cases: relative viability (nuclei count vs DMSO), 5 days (fraction); higher = more cells survive
[1] = compound: Cn1c(=O)n(-c2ccc(C(C)(C)C#N)cc2)c2c3cc(-c4cnc5ccccc5c4)ccc3ncc21 [Dactolisib] + NC(=O)Nc1cc(-c2cccc(F)c2)sc1C(=O)N[C@H]1CCCNC1 [AZD7762] (partner 0.2 µM)
Summary of the method: (§1)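 Relative viability equals treated-well nuclei counts divided by vehicle-well nuclei counts. Counts came from 4× images of lung cancer cell lines grown in 1536-well plates for 5 days after pin-tool dosing on the day after seeding. Dosing used one drug alone or a fixed anchor-drug dose plus five library-drug doses (not always all listed) in √10 steps, and values are medians of duplicate plates.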

[2] = compound: Cn1c(=O)n(-c2ccc(C(C)(C)C#N)cc2)c2c3cc(-c4cnc5ccccc5c4)ccc3ncc21 [Dactolisib] + CS(=O)(=O)CCNCc1ccc(-c2ccc3ncnc(Nc4ccc(OCc5cccc(F)c5)c(Cl)c4)c3c2)o1 [Lapatinib] (partner 2 µM)
Summary of the method: as §1

[3] = compound: Cn1c(=O)n(-c2ccc(C(C)(C)C#N)cc2)c2c3cc(-c4cnc5ccccc5c4)ccc3ncc21 [Dactolisib] + CCNC(=O)c1noc(-c2cc(C(C)C)c(O)cc2O)c1-c1ccc(CN2CCOCC2)cc1 [Luminespib] (partner 0.01 µM)
Summary of the method: as §1

[4] = compound: C1CCC(CC1)N(CCNCCC2=C3C(=C(C=C2)O)NC(=O)CO3)C(=O)CCNCCC4=CC(=C(C=C4)Cl)Cl [AZ505] + COc1cccc2cc(-c3nc([C@H]4CC[C@H](C(=O)O)CC4)n4ncnc(N)c34)[nH]c12 [OSI-027] (partner 0.5 µM)
Summary of the method: as §1

Cell Line	relative viability ([1]; first compound 0.002 µM)	relative viability ([1]; first compound 0.006325 µM)	relative viability ([1]; first compound 0.02 µM)	relative viability ([1]; first compound 0.06325 µM)	relative viability ([1]; first compound 0.2 µM)	relative viability ([2]; first compound 0.002 µM)	relative viability ([2]; first compound 0.006325 µM)	relative viability ([2]; first compound 0.02 µM)	relative viability ([2]; first compound 0.06325 µM)	relative viability ([2]; first compound 0.2 µM)	relative viability ([3]; first compound 0.002 µM)	relative viability ([3]; first compound 0.006325 µM)	relative viability ([3]; first compound 0.02 µM)	relative viability ([3]; first compound 0.06325 µM)	relative viability ([3]; first compound 0.2 µM)	relative viability ([4]; first compound 0.08 µM)	relative viability ([4]; first compound 0.253 µM)	relative viability ([4]; first compound 0.8 µM)	relative viability ([4]; first compound 2.53 µM)	relative viability ([4]; first compound 8 µM)
NCI-H596	1.21	1.03	0.946	0.774	0.396	1.02	1.06	0.909	0.574	0.369	0.925	0.938	0.583	0.347	0.28	0.591	0.517	0.937	0.685	0.847
A-427	0.749	0.698	0.688	0.498	0.306	1.06	1.04	0.928	0.883	0.776	0.737	0.834	0.861	0.572	0.47	0.416	0.278	0.376	0.504	0.492
EMC-BAC-2	1.14	0.955	0.984	0.662	0.607	0.921	0.856	0.889	0.703	0.604	1.15	1.14	1.1	0.875	0.556	0.358	0.38	0.392	0.385	0.372
NCI-H441	1.04	1.28	1.18	0.764	0.449	–	–	–	–	–	0.446	0.331	0.305	0.285	0.206	0.66	0.595	0.614	0.579	0.703
LCLC-103H	0.797	0.781	0.703	0.582	0.467	–	–	–	–	–	1.03	0.905	0.844	0.483	0.444	0.447	0.472	0.447	0.496	0.476
HCC-827	0.226	0.279	0.176	0.184	0.231	0.209	0.206	0.201	0.172	0.196	0.532	0.626	0.538	0.401	0.144	0.691	0.844	0.753	0.846	0.847
NCI-H1355	0.834	0.73	0.699	0.419	0.308	1.02	0.879	0.939	0.521	0.388	0.862	0.705	0.529	0.276	0.186	0.395	0.319	0.384	0.362	0.429
NCI-H1734	0.542	0.428	0.447	0.146	0.131	1.02	1	0.817	0.342	0.378	0.151	0.211	0.196	0.184	0.169	0.515	0.539	0.573	0.559	0.576
HARA	0.271	0.463	0.59	0.438	0.27	0.652	0.67	0.761	0.421	0.318	0.829	0.462	0.62	0.314	0.121	0.269	0.234	0.352	0.345	0.365
HCC-15	1.18	1.02	1.26	1.13	0.971	0.752	0.884	0.755	0.594	0.367	0.38	0.303	0.507	0.173	0.142	0.612	0.624	0.596	0.594	0.726
NCI-H2023	–	–	–	–	–	0.282	0.615	0.597	0.127	0.137	0.643	0.562	0.217	0.0703	0.0888	0.437	0.322	0.421	0.393	0.398
NCI-H1703	–	0.139	0.127	0.124	0.115	0.688	0.796	0.716	0.379	0.314	–	–	–	–	–	–	–	–	–	–
SW 1573	–	–	–	–	–	1.13	1.08	1.04	0.458	0.367	0.234	0.214	0.214	0.168	0.0994	0.589	0.579	0.689	0.68	0.63
Calu-6	–	–	–	–	–	1.18	1.08	0.98	0.645	0.531	–	–	–	–	–	–	–	–	–	–
SK-MES-1	–	–	–	–	–	0.476	0.452	0.428	0.352	0.296	0.828	0.744	0.349	0.286	0.171	0.501	0.53	0.534	0.577	0.583
NCI-H1650	–	–	–	–	–	0.847	0.701	0.73	0.449	0.431	0.19	0.185	0.192	0.206	0.202	0.7	0.677	0.672	0.554	0.806
HCC-366	0.198	0.27	0.238	0.203	0.0362	0.897	0.988	1.03	0.445	0.613	–	–	–	–	–	0.817	0.635	0.948	0.764	0.924
HCC-78	0.627	0.712	0.553	0.484	0.242	0.769	0.753	0.612	0.47	0.493	–	–	–	–	–	0.386	0.33	0.37	0.438	0.466

Cell Line	relative viability ([1]; first compound 0.002 µM)	relative viability ([1]; first compound 0.006325 µM)	relative viability ([1]; first compound 0.02 µM)	relative viability ([1]; first compound 0.06325 µM)	relative viability ([1]; first compound 0.2 µM)	relative viability ([2]; first compound 0.002 µM)	relative viability ([2]; first compound 0.006325 µM)	relative viability ([2]; first compound 0.02 µM)	relative viability ([2]; first compound 0.06325 µM)	relative viability ([2]; first compound 0.2 µM)	relative viability ([3]; first compound 0.002 µM)	relative viability ([3]; first compound 0.006325 µM)	relative viability ([3]; first compound 0.02 µM)	relative viability ([3]; first compound 0.06325 µM)	relative viability ([3]; first compound 0.2 µM)	relative viability ([4]; first compound 0.08 µM)	relative viability ([4]; first compound 0.253 µM)	relative viability ([4]; first compound 0.8 µM)	relative viability ([4]; first compound 2.53 µM)	relative viability ([4]; first compound 8 µM)
EBC-1	–	–	–	–	–	0.237	0.203	0.241	0.19	0.182	–	–	–	–	–	–	–	–	–	–
NCI-H1623	–	–	–	–	–	–	–	–	–	–	0.604	0.491	0.462	0.308	0.275	0.423	0.405	0.452	0.476	0.398
NCI-H1648	0.934	0.762	0.629	0.603	0.555	–	–	–	–	–	–	–	–	–	–	0.282	0.272	0.295	0.305	0.267
NCI-H522	0.83	0.858	0.979	0.695	0.626	–	–	–	–	–	1.15	1.17	1.22	0.659	0.596	0.713	0.583	0.691	0.812	0.809
NCI-H2228	–	–	–	–	–	0.993	0.914	0.496	0.246	0.246	0.15	0.143	0.112	0.176	0.128	0.382	0.341	0.49	0.485	0.477
NCI-H1563	–	–	–	–	–	0.939	0.892	0.816	0.72	0.582	0.535	0.532	0.511	0.47	0.507	0.801	0.811	0.789	0.702	0.735
NCI-H1299	–	–	–	–	–	0.998	0.974	0.98	0.893	0.661	–	–	–	–	–	–	–	–	–	–
COR-L 105	–	–	–	–	–	0.311	0.355	0.363	0.267	0.35	0.776	0.889	0.55	0.334	0.254	0.626	0.572	0.615	0.62	0.752
NCI-H661	–	–	–	–	–	0.434	0.475	0.414	0.257	0.263	0.929	0.99	0.866	0.391	0.496	0.681	0.8	0.666	0.695	0.715
NCI-H2342	0.511	0.49	0.444	0.471	0.413	–	–	–	–	–	0.677	0.634	0.653	0.495	0.437	0.604	0.712	0.765	0.587	0.671
SK-LU-1	–	–	–	–	–	0.857	0.782	0.728	0.509	0.27	0.211	0.18	0.214	0.159	0.132	0.168	0.184	0.201	0.197	0.255
A549	–	–	–	–	–	1.07	0.769	0.674	0.224	0.145	–	–	–	–	–	–	–	–	–	–
NCI-H2009	–	–	–	–	–	1.1	1.01	0.95	0.9	0.327	1.14	1.05	0.89	1	0.362	0.615	0.591	0.582	0.539	0.59
SW 900	0.607	0.526	0.596	0.435	0.224	–	–	–	–	–	0.17	0.2	0.157	0.174	0.169	0.441	0.427	0.623	0.753	0.702
IA-LM	–	–	–	–	–	0.769	0.671	0.771	0.156	0.106	–	–	–	–	–	–	–	–	–	–
COR-L23	–	–	–	–	–	1.39	0.864	0.765	0.299	0.295	0.678	0.49	0.284	0.123	0.138	0.494	0.65	0.588	0.486	0.656
ChaGo-K-1	0.913	0.845	0.811	0.877	0.814	–	–	–	–	–	0.622	0.562	0.582	0.39	0.463	0.53	0.448	0.593	0.699	0.537
NCI-H520	–	–	–	–	–	0.888	0.753	0.655	0.221	0.128	0.22	0.184	0.233	0.207	0.204	0.26	0.285	0.288	0.306	0.322
